Legend:
[1] = biological target: PD-1/PD-L1 PPI (Homo sapiens, UniProt Q9NZQ7); experiment: PDL1/PD1 Binding Assay; settings: PDL1-6×His 0.3 nM, PD1-Fc-Avi-Biotin 2.5 nM, Acceptor/Donor beads, Envision reader
Procedure, shortened: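 AlphaScreen competition: compound (1% DMSO) preincubated 30 min RT with PDL1-6×His (0.3 nM), then PD1-Fc-Avi-Biotin (2.5 nM) 30 min; anti-His acceptor and streptavidin donor beads (20 ug/mL each) added, 1 h each, dark up to overnight. Buffer 25 mM Hepes pH 7.4, 150 mM NaCl. IC50 by four-parameter fit.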

[2] = test system: PD-1/PD-L1 interaction; experiment: PD-1/PD-L1 NFAT Reporter Assay (co-culture of Jurkat T cells overexpressing PD-1 and PD-L1 expressing CHO cells); assay type: cell-based; settings: co-culture 6 hrs at 37° C., NFAT-mediated luciferase activity
Procedure, shortened: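 Compounds added to CHO cells expressing surface anti-CD3 and PD-L1, then Jurkat cells with PD-1 and NFAT-driven luciferase seeded on top; co-culture 6 hrs at 37° C. Luminescence read after ONE-Glo addition, EC50 from dose-response fit.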

Sequence of PD-1/PD-L1 PPI (Q9NZQ7 19-238 limits assumed): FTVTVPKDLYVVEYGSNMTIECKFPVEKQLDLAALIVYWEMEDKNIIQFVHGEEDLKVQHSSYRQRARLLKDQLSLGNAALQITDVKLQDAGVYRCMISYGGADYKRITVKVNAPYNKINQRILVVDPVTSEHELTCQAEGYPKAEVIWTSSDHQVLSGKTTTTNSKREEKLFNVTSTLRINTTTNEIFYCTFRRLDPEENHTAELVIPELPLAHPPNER

SMILES	IC50 [1] [µM]	EC50 ([2]; Homo sapiens, Jurkat, 6 h) [µM]	EC50 [2] [µM]
COc1nc(-c2cccc(-c3cc(F)cc(NC(=O)c4nn(C)c(=O)n(C)c4=O)c3C)c2C)cc2c1[C@@H](N[C@@H]1CCOC[C@@H]1O)CC2 (single isomer, unassigned) [Compound A-74]	≤ 0.01	0.01 to 0.1	
COc1nc(-c2cccc(-c3cccc(NC(=O)c4nn(C)c(=O)n(C)c4=O)c3C)c2C)cc2c1[C@H](N[C@@H]1COC[C@@H]1O)CC2 (single isomer, unassigned) [Compound A-112]	≤ 0.01	1 to 10	
COc1nc(-c2cccc(-c3cccc(NC(=O)c4cn(C)c(=O)n(C)c4=O)c3Cl)c2Cl)cc2c1[C@H](NC[C@@H]1CNC(=O)C1)CC2 (single isomer, unassigned) [Compound A-136]	≤ 0.01	≤ 0.01	
COc1nc(-c2cccc(-c3cccc(NC(=O)c4nn(C)c(=O)n(C)c4=O)c3C)c2C)cc2c1[C@@H](N[C@@H]1COC[C@H]1O)CC2 (single isomer, unassigned) [Compound A-103]	0.01 to 0.1	> 5	
COc1nc(-c2cccc(-c3cccc(NC(=O)c4cn(C)c(=O)n(C)c4=O)c3C)c2Cl)cc2c1C(NC[C@@H]1CCC(=O)N1)C(O)C2 (single isomer, unassigned) [Compound A-126]	≤ 0.01		0.01 to 0.1
COc1nc(-c2cccc(-c3cc(F)cc(NC(=O)c4cn(C)c(=O)n(C)c4=O)c3Cl)c2Cl)cc2c1[C@@H](NC[C@@H]1CCC(=O)N1)CC2 [Compound A-65]	≤ 0.01	≤ 0.01	
COc1nc(-c2cccc(-c3cccc(NC(=O)c4cn(C)c(=O)n(C)c4=O)c3C)c2Cl)cc2c1C(NC[C@@H]1CCC(=O)N1)C(F)C2 (single isomer, unassigned) [Compound K-1b]	≤ 0.01		0.1 to 1
COc1nc(-c2cccc(-c3cccc(NC(=O)c4cn(C)c(=O)n(C)c4=O)c3Cl)c2Cl)cc2c1[C@@H](NC[C@@H]1CCC(=O)N1)CC2 (single isomer, unassigned) [Compound A-1]	≤ 0.01	≤ 0.01	
COc1nc(-c2cccc(-c3cccc(NC(=O)c4cn(C)c(=O)n(C)c4=O)c3OC)c2Cl)cc2c1[C@@H](NC[C@@H]1CCC(=O)N1)CC2 [Compound A-53]	≤ 0.01	0.1 to 1	
COc1nc(-c2cccc(-c3cccc(NC(=O)c4cn(C)c(=O)n(C)c4=O)c3Cl)c2Cl)cc2c1[C@H](N[C@@H]1CCOC[C@@H]1O)CC2 (single isomer, unassigned) [Compound A-30]	≤ 0.01	0.1 to 1	

The remaining lines, values ahead:

IC50 [1] [µM]	EC50 ([2]; Homo sapiens, Jurkat, 6 h) [µM]	EC50 [2] [µM]	SMILES
≤ 0.01	≤ 0.01		COc1nc(-c2ccc(F)c(-c3cccc(NC(=O)c4cn(C)c(=O)n(C)c4=O)c3C)c2F)cc2c1[C@@H](NC[C@@H]1CCC(=O)N1)CC2 [Compound A-67]
≤ 0.01	0.01 to 0.1		COc1nc(-c2cccc(-c3cccc(NC(=O)c4cn(C)c(=O)n(C)c4=O)c3Cl)c2Cl)cc2c1C(N1CCN3C(=O)CC[C@@H]3C1)CC2 (stereo partly drawn) [Compound A-118]
≤ 0.01	≤ 0.01		COc1nc(-c2cccc(-c3cc(F)cc(NC(=O)c4cn(C)c(=O)n(C)c4=O)c3C)c2Cl)cc2c1[C@@H](NC[C@@H]1CCC(=O)N1)CC2 [Compound A-60]
≤ 0.01	0.01 to 0.1		COc1nc(-c2cccc(-c3cccc(Nc4ncnc5cccnc45)c3Cl)c2Cl)cc2c1[C@@H](NC[C@@H]1CCC(=O)N1)CC2 [Compound B-2]
≤ 0.01		0.01 to 0.1	COc1nc(-c2ccc(F)c(-c3cccc(NC(=O)c4cn(C)c(=O)n(C)c4=O)c3C)c2F)cc2c1[C@@H](NC[C@@H]1CCC(=O)N1)CC2 [Compound A-68]
≤ 0.01	0.01 to 0.1		COc1nc(-c2cccc(-c3cccc(NC(=O)c4cn(C)c(=O)n(C)c4=O)c3Cl)c2Cl)cc2c1C(N)C(O)C2 (stereo not drawn) [Compound A-120]
≤ 0.01		≤ 0.01	COc1nc(-c2cccc(-c3cccc(NC(=O)c4cn(C)c(=O)n(C)c4=O)c3C)c2Cl)cc2c1[C@@H](N1CC3(CNC(=O)C3)C1)CC2 (single isomer, unassigned) [Compound A-131]
≤ 0.01	≤ 0.01		COc1nc(-c2cccc(-c3cccc(NC(=O)c4cn(C)c(=O)n(C)c4=O)c3Cl)c2Cl)cc2c1[C@H](N1CC3(COCC(=O)N3)C1)CC2 (single isomer, unassigned) [Compound A-134]

— patent US12534450B2, “Methods and compositions for targeting PD-L1” (Aligos Therapeutics, Inc., priority 2021, dated 2026)
